Reference: USRE48335E1, “Polymyxin derivatives as antimicrobial compounds” (priority 2014, dated 2020)
Converted amounts (≈) assume the structure as drawn. Read-outs that look alike come from different tables or passages of the source. Positions of bridges follow the written chain, without caps; N, C: chain ends. Non-standard residues stand in square brackets, D forms with d. Residues, ends and D or L forms follow the SMILES beside them. *: point of attachment. Benzoyl(4-Ph) = O=C(c1ccc(-c2ccccc2)cc1)*; Decanoyl = CCCCCCCCCC(=O)*; Dab = NCC[C@H](N)C(=O)O; PhAc = O=C(Cc1ccccc1)*

Assays:
[1] = test system: Enterobacter cloacae
Procedure, shortened: (§1)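 Minimum inhibitory concentrations come from CLSI-standard broth microdilution in cation-adjusted Mueller-Hinton broth.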

[2] = test system: Pseudomonas aeruginosa
Procedure, shortened: as §1

[3] = test system: Acinetobacter baumannii
Procedure, shortened: as §1

[4] = test system: Klebsiella pneumoniae
Procedure, shortened: as §1

[5] = test system: P. aeruginosa ATCC 27853; experiment: In vivo efficacy in mouse blood infection model (neutropenic Swiss mice); details: compound, free base 4 mg/kg intravenously 2 h after inoculation, blood at 4 h
Procedure: P. aeruginosa ATCC 27853, A. baumannii ATCC 19606 and K. pneumoniae FADDI-KP032 were subcultured on nutrient agar plates. One colony of each bacterial strain was dispersed in 10-mL CAMHB and incubated overnight. On day 2, an aliquot (0.2 mL) of each overnight culture suspension was dispersed in 20-mL CAMHB and incubated for 1.5-2.5 h for production of early log-phase growth bacterial culture. The bacteria in the early log-phase growth suspension were concentrated by centrifugation (3,220 g for 10 min) and re-suspended in sterile 0.9% saline for inoculation into mice. The bacterial cell concentration (colony forming unit [CFU]/mL) in saline was estimated by determining the optical density (OD) of the suspension at 600 nm, and confirmed by plating the suspension on nutrient agar plates. Swiss mice (22 to 28 g) were rendered neutropenic by injecting two doses of cyclophosphamide intraperitoneally, −4 day (150 mg/kg) and −1 day (100 mg/kg) prior to inoculation. Bloodstream infection was established by injecting intravenously 50 μL of early log-phase bacterial suspension (10^8-10^9 CFU/mL). The exact injection volume for each bacterial suspension was calculated based upon the OD value of the bacterial suspension and the desired inoculum for each isolate.
Solutions for administration of colistin, polymyxin B or the compounds were prepared at a concentration of 1 mg (free base) per mL in sterile 0.9% saline. At 2 h after inoculation, a mouse in the treatment groups was injected intravenously with one of the above solutions at 4 μL/g body weight (BW) (i.e. free base 4 mg/kg BW), while the same volume of saline was injected into the control mice. At 0 h or at 4 h after the administration of antibacterial drug or saline (control), animals were euthanised by inhalation of overdose isoflurane. The skin on the chest and fore-paws of each animal was thoroughly cleansed with 70% ethanol and Betadine®. The blood was collected via cardiac puncture using a 1-mL syringe rinsed with heparin (5,000 IU/mL), diluted serially in sterile 0.9% saline and plated on nutrient agar plates using a spiral plater.
The agar plates were incubated at 37° C. overnight. The bacterial colonies on the plate were counted and CFU/mL of the blood was calculated. The log10 CFU/mL of blood in each mouse was calculated. The in vivo activity of the compounds against the bacteria was calculated as the difference of the log10 CFU/mL values between the treated mice and the control mice at 4 h (Δ log=log10 (treated)CFU/mL−log10 (control)CFU/mL).
Any compound showing a decrease in bacterial loading (Δ log) of ≥2 at 4 h is considered to have good in vivo efficacy in this initial screening model.

[6] = Enterobacter cloacae FADDI-EC001, broth microdilution in CAMHB
[7] = Enterobacter cloacae FADDI-EC003, broth microdilution in CAMHB
[8] = Enterobacter cloacae FADDI-EC006, broth microdilution in CAMHB
[9] = Pseudomonas aeruginosa ATCC 27853, broth microdilution in CAMHB
[10] = Pseudomonas aeruginosa FADDI-PA022, broth microdilution in CAMHB
[11] = Pseudomonas aeruginosa FADDI-PA025, broth microdilution in CAMHB
[12] = Acinetobacter baumannii ATCC 17978, broth microdilution in CAMHB
[13] = Acinetobacter baumannii ATCC 19606, broth microdilution in CAMHB
[14] = Acinetobacter baumannii FADDI-AB034, broth microdilution in CAMHB

For `CCCCCCCCCC(=O)N[C@@H](CCN)C(=O)N[C@H](C(=O)N[C@@H](CCN)C(=O)N[C@H]1CCNC(=O)[C@H]([C@@H](C)O)NC(=O)[C@H](CCN)NC(=O)[C@H](CCN)NC(=O)[C@H]([C@@H](C)O)NC(=O)[C@@H](CC(C)C)NC(=O)[C@H](CCN)NC1=O)[C@@H](C)O` [Compound 27] (Decanoyl-[Dab]T[Dab][Dab][Dab][dL]T[Dab][Dab]T; lactam 4-C), the “Minimum inhibitory concentration, Ec FADDI-EC001” value [1] was <0.125 mg/L, the “Minimum inhibitory concentration, Ec FADDI-EC003” value [1] was <0.125 mg/L and the “Minimum inhibitory concentration, Ec FADDI-EC006” value [1] was 0.25 mg/L (≈ 0.213 µM). For the same compound, the MIC [2] was 1 mg/L (≈ 0.854 µM), the “Minimum inhibitory concentration, Pa ATCC 27853” value [2] was 1 mg/L (≈ 0.854 µM) and the “Minimum inhibitory concentration, Pa FADDI-PA022” value [2] was 1 mg/L (≈ 0.854 µM). For the same compound, the “Minimum inhibitory concentration, Pa FADDI-PA025” value [2] was 16 mg/L (≈ 13.7 µM), the MIC [3] was 1 mg/L (≈ 0.854 µM) and the “Minimum inhibitory concentration, Ab A ATCC 17978” value [3] was 1 mg/L (≈ 0.854 µM). For the same compound, the “Minimum inhibitory concentration, Ab ATCC 19606” value [3] was 1 mg/L (≈ 0.854 µM), the “Minimum inhibitory concentration, Ab FADDI-AB034” value [3] was 1 mg/L (≈ 0.854 µM) and the MIC [4] was 0.5 mg/L (≈ 0.427 µM). The “Δ log (Treated-Control at 4 h)” value [5] was −3.67 log10 CFU/mL.

For `CC(C)C[C@H]1NC(=O)[C@H](CCN)NC(=O)[C@@H](NC(=O)[C@H](CCN)NC(=O)[C@@H](NC(=O)[C@H](CCN)NC(=O)c2ccc(-c3ccccc3)cc2)[C@@H](C)O)CCNC(=O)[C@H]([C@@H](C)O)NC(=O)[C@H](CCN)NC(=O)[C@H](CCN)NC(=O)[C@H]([C@@H](C)O)NC1=O` [Compound 29] ({Benzoyl(4-Ph)}-[Dab]T[Dab][Dab][Dab][dL]T[Dab][Dab]T; lactam 4-C), the “Minimum inhibitory concentration, Ec FADDI-EC001” value [1, 6] was 0.5 mg/L (≈ 0.418 µM), the “Minimum inhibitory concentration, Ec FADDI-EC003” value [1, 7] was 1 mg/L (≈ 0.835 µM) and the “Minimum inhibitory concentration, Ec FADDI-EC006” value [1, 8] was 0.5 mg/L (≈ 0.418 µM). For the same compound, the MIC ([2]; P. aeruginosa ATCC 27853) was 1 mg/L (≈ 0.835 µM), the “Minimum inhibitory concentration, Pa ATCC 27853” value [2, 9] was 1 mg/L (≈ 0.835 µM) and the “Minimum inhibitory concentration, Pa FADDI-PA022” value [2, 10] was 4 mg/L (≈ 3.34 µM). The “Minimum inhibitory concentration, Pa FADDI-PA025” value [2, 11] was 32 mg/L (≈ 26.7 µM), the MIC ([3]; A. baumannii ATCC 19606) was 8 mg/L (≈ 6.68 µM) and the “Minimum inhibitory concentration, Ab A ATCC 17978” value [3, 12] was 2 mg/L (≈ 1.67 µM). For the same compound, the “Minimum inhibitory concentration, Ab ATCC 19606” value [3, 13] was 8 mg/L (≈ 6.68 µM), the “Minimum inhibitory concentration, Ab FADDI-AB034” value [3, 14] was 4 mg/L (≈ 3.34 µM) and the MIC ([4]; K. pneumoniae FADDI-KP032) was 1 mg/L (≈ 0.835 µM). For the same compound, the “Δ log (Treated-Control at 4 h)” value [5] was −2.80 log10 CFU/mL.

`CC(C)C[C@H]1NC(=O)[C@H](CCN)NC(=O)[C@@H](NC(=O)[C@H](CCN)NC(=O)[C@@H](NC(=O)[C@H](CCN)NC(=O)Cc2ccccc2)[C@@H](C)O)CCNC(=O)[C@H]([C@@H](C)O)NC(=O)[C@H](CCN)NC(=O)[C@H](CCN)NC(=O)[C@H]([C@@H](C)O)NC1=O` [Compound 30] (PhAc-[Dab]T[Dab][Dab][Dab][dL]T[Dab][Dab]T; lactam 4-C) was tested, and the “Minimum inhibitory concentration, Ec FADDI-EC001” value [1, 6] was 2 mg/L (≈ 1.76 µM), the “Minimum inhibitory concentration, Ec FADDI-EC003” value [1, 7] was 2 mg/L (≈ 1.76 µM) and the “Minimum inhibitory concentration, Ec FADDI-EC006” value [1, 8] was 4 mg/L (≈ 3.52 µM). The MIC ([2]; P. aeruginosa ATCC 27853) was 1 mg/L (≈ 0.881 µM), the “Minimum inhibitory concentration, Pa ATCC 27853” value [2, 9] was 1 mg/L (≈ 0.881 µM) and the “Minimum inhibitory concentration, Pa FADDI-PA022” value [2, 10] was 1 mg/L (≈ 0.881 µM). For the same compound, the “Minimum inhibitory concentration, Pa FADDI-PA025” value [2, 11] was >32 mg/L, the MIC ([3]; A. baumannii ATCC 19606) was 32 mg/L (≈ 28.2 µM) and the “Minimum inhibitory concentration, Ab A ATCC 17978” value [3, 12] was 32 mg/L (≈ 28.2 µM). The “Minimum inhibitory concentration, Ab ATCC 19606” value [3, 13] was 32 mg/L (≈ 28.2 µM), the “Minimum inhibitory concentration, Ab FADDI-AB034” value [3, 14] was 32 mg/L (≈ 28.2 µM) and the MIC ([4]; K. pneumoniae FADDI-KP032) was 1 mg/L (≈ 0.881 µM). The “Δ log (Treated-Control at 4 h)” value [5] was −0.39 log10 CFU/mL.
